Consider five compounds from patent US12139480B2, “5-thiazolecarboxamide kinase inhibitor and uses thereof” (iOmx Therapeutics AG, priority 2018, dated 2024).

One series concerns the target T1, ABL1 wt (Homo sapiens, UniProt P00519).
T1 construct: includes the ABL1 wild-type protein (amino acids P118-S525) and mutants forms; purchased ProQinase
T1 sequence (P00519 118-535 limits assumed): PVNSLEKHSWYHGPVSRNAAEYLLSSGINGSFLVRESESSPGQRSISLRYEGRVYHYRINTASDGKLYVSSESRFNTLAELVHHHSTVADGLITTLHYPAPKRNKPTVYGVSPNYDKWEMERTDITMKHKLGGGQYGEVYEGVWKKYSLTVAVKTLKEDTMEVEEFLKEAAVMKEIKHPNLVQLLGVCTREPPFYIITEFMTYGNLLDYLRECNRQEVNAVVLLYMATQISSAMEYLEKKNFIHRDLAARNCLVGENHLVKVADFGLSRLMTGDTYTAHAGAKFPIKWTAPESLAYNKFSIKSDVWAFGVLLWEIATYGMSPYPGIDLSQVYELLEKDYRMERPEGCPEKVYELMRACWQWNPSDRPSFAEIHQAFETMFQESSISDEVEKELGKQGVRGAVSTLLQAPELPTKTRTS
The series can be described thus: radiometric protein kinase assay (33PanQinase), IC50. The format is biochemical. How it is done:
(§1) Incorporation of 33Pi was determined with a microplate scintillation counter (Microbeta, Wallac).

In a further series the target is SRC (GST-HIS-tag) (Homo sapiens, UniProt P12931). The series is described as above. The format is biochemical. How it is done: as §1
SRC (GST-HIS-tag), sequence (P12931 whole entry): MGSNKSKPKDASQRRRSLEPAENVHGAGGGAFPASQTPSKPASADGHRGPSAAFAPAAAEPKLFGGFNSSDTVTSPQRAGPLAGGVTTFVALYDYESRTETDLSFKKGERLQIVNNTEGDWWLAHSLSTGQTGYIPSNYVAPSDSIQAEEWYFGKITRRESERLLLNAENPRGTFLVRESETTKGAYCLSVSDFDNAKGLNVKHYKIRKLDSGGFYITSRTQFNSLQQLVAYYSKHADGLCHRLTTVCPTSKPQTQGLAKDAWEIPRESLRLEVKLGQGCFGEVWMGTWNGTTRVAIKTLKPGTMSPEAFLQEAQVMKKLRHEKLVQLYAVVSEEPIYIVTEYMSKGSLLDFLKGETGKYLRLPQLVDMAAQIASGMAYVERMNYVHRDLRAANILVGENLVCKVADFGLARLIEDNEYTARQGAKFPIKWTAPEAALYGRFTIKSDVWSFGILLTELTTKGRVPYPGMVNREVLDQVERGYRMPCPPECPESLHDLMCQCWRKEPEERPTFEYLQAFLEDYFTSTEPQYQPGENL
A further series deals with M579-A2-luc tumour cells. The series can be described thus: sensitisation of tumour cells to in-vitro TNF attack, luciferase-based killing assay. The format is cell-based. Conditions: TNF 10 ng/mL, compound between about 10 and 100 nM. The protocol: PANC1-luc is an HLA-A2.1+ luciferase-expressing pancreatic adenocarcinoma (PDAC) tumour cell line, and M579-A2-luc is an HLA-A2.1+ luciferase-expressing melanoma tumour cell line.
After lysis, luciferase assay buffer is added and immediately the luciferase intensity was measured by using the TECAN-Spark microplate reader.

Another series has as its target T2, SIK1 (Homo sapiens, UniProt P57059).
T2 construct: purchased ProQinase
In words: radiometric protein kinase assay (33PanQinase), IC50. The format is biochemical. The protocol: as §1

A further series deals with T3, SIK2 (Homo sapiens, UniProt Q9H0K1).
T3 construct: purchased ProQinase
T3 sequence (Q9H0K1 whole entry): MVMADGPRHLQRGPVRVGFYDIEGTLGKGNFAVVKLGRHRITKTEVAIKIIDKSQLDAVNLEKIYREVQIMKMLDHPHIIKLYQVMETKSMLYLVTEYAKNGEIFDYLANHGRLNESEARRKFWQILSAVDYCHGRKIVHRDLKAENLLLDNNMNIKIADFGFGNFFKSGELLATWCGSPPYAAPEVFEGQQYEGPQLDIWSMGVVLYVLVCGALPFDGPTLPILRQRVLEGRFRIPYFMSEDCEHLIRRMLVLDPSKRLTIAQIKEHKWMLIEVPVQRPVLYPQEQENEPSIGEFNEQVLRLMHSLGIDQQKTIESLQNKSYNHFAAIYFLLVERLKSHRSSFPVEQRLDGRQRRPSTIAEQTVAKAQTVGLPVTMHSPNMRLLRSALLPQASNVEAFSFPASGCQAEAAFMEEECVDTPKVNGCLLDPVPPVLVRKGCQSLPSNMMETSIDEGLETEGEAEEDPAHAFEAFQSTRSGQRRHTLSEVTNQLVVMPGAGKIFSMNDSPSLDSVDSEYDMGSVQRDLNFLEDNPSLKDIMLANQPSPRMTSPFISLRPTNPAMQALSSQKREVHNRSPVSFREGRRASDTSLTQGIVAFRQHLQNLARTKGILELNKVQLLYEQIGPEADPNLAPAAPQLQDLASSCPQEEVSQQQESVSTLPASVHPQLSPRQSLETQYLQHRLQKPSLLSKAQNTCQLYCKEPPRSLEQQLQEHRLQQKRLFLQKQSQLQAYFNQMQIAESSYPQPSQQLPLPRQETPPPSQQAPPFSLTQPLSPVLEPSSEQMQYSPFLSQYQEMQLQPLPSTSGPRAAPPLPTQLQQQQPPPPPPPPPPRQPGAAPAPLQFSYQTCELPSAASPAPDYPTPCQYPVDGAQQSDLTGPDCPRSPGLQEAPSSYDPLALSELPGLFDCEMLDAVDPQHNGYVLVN
The description is as above. The format is biochemical. How it is done: as §1

The next series concerns the target T4, SIK3 (Homo sapiens, UniProt Q9Y2K2).
T4 construct: purchased ProQinase
The series is described as above. The format is biochemical. The protocol: as §1

The test system of a further series is K562 human CML tumours. Conditions: dasatinib 8-50 mg/kg PO once a day for 10 days, 5-days-on and 2-days off; imatinib high doses; cited from earlier work.
Another series relates to K562 CML cells. Conditions: similar study; dasatinib 10 and 30 mg/kg/day; imatinib 200 mg/kg/day; cited from earlier work.
The conditions of series [1]: humans; prescribing information; cited from earlier work.

T2 sequence (P57059 whole entry): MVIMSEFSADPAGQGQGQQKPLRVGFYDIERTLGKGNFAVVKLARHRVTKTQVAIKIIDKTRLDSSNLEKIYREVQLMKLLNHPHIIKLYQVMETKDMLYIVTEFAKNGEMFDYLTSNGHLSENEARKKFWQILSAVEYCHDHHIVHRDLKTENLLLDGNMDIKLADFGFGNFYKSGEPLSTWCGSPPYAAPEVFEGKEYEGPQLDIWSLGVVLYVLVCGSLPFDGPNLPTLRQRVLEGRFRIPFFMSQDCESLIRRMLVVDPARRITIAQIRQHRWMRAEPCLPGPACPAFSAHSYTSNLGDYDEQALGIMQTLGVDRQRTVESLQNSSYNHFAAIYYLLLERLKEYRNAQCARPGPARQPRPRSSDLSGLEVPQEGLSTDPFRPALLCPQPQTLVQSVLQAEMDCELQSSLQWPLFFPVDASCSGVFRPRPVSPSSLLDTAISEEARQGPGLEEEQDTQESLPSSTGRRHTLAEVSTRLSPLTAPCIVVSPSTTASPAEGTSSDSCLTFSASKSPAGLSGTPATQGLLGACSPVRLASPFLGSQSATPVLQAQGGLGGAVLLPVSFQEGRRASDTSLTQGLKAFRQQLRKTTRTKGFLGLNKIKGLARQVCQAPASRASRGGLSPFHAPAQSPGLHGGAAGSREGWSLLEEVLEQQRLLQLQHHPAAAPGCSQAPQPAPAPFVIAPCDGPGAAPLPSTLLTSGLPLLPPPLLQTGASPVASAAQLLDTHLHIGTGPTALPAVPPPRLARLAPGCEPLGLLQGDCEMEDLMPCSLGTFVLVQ
T4 sequence (Q9Y2K2 whole entry): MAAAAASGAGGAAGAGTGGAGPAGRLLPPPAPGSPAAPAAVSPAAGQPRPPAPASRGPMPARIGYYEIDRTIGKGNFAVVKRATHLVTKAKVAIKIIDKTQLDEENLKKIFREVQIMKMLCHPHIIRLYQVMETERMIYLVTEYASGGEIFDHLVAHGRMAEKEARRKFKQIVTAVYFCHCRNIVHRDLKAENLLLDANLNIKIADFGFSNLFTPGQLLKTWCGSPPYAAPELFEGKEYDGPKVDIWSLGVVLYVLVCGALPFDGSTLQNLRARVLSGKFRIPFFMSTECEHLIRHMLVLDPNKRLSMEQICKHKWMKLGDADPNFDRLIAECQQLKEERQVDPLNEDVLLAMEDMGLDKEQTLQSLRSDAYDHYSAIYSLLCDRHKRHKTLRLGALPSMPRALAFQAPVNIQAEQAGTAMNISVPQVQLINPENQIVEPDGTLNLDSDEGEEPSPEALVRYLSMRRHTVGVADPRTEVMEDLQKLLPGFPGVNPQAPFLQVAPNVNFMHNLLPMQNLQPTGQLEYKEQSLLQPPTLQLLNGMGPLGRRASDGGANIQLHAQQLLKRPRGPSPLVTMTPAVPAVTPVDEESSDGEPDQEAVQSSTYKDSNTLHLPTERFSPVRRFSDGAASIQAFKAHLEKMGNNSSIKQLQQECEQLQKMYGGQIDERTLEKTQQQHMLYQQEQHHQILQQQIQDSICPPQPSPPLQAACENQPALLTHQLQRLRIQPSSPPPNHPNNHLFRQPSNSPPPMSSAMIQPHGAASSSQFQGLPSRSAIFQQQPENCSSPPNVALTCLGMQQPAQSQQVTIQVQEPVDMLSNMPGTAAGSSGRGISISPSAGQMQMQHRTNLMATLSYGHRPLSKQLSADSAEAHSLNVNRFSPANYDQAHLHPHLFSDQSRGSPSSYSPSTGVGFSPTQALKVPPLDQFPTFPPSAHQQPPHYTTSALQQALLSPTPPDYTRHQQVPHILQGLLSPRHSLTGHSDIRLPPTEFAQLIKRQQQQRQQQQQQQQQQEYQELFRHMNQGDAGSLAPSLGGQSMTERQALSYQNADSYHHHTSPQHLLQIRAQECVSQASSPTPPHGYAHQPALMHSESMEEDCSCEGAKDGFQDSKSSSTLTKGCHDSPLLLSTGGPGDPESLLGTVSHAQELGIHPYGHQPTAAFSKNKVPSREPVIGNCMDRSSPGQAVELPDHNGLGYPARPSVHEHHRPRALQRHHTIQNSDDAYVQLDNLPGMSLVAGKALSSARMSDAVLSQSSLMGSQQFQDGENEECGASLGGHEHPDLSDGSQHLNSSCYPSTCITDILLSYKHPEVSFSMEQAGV

Turning to `Cc1nc(Nc2ncc(C(=O)Nc3c(Cl)cccc3Br)s2)cc(N2CCN(CCO)CC2)n1` [Compound B1, N-(2-bromo-6-chlorophenyl)-2-((6-(4-(2-hydroxyethyl)piperazin-1-yl)-2-methylpyrimidin-4-yl)amino)thiazole-5-carboxamide], the “inhibitory activity” value against ABL1 wt is “pan-SIK and ABL1 & SRC inhibitor”; against SRC (GST-HIS-tag), “pan-SIK and ABL1 & SRC inhibitor”. In addition, the “cytotoxicity in the presence of TNF compared to inhibitor alone” value (shortened to “cytotoxicity … compared to inhibitor alone”) with M579-A2-luc tumour cells is “increased cytotoxicity”.

Turning to `COc1c(F)cccc1NC(=O)c1cnc(Nc2cc(N3CCN(CCO)CC3)nc(C)n2)s1` [Compound B4, N-(3-fluoro-2-methoxyphenyl)-2-((6-(4-(2-hydroxyethyl)piperazin-1-yl)-2-methylpyrimidin-4-yl)amino)thiazole-5-carboxamide], the “inhibitory activity” value against ABL1 wt is “potent inhibitor”; on SIK1 it was “strong inhibitor”; against SIK2 it was “strong inhibitor”; against SIK3, “weak inhibitor”; against SRC (GST-HIS-tag), “potent inhibitor”. Moreover, in the series with M579-A2-luc tumour cells, the “cytotoxicity … compared to inhibitor alone” value was “fails to exhibit cytotoxicity”.

On to `CCOc1cccc(Cl)c1NC(=O)c1cnc(Nc2cc(N3CCN(CCO)CC3)nc(C)n2)s1` [Compound B8, N-(2-chloro-6-ethoxyphenyl)-2-((6-(4-(2-hydroxyethyl)piperazin-1-yl)-2-methylpyrimidin-4-yl)amino)thiazole-5-carboxamide], for which the “inhibitory activity” value against ABL1 wt is on record as “potent ABL1 & SRC inhibitor”; on SIK1, “low inhibitory activity”; against SIK2, “low inhibitory activity”; against SIK3, “low inhibitory activity”; against SRC (GST-HIS-tag), “potent ABL1 & SRC inhibitor”. Besides, the “cytotoxicity … compared to inhibitor alone” value with M579-A2-luc tumour cells was “fails to exhibit cytotoxicity”.

Take `Cc1ccc(NC(=O)c2ccc(CN3CCN(C)CC3)cc2)cc1Nc1nccc(-c2cccnc2)n1` [imatinib]: in the series on K562 human CML tumours, the tumour response entry is “failed to produce a comparative response”. The “survival / intracranial tumour growth” value with K562 CML cells is reported as “failed to inhibit intracranial tumour growth”.

`Cc1cn(-c2cc(NC(=O)c3ccc(C)c(Nc4nccc(-c5cccnc5)n4)c3)cc(C(F)(F)F)c2)cn1` [nilotinib]: in [1], the “terminal / elimination half-life” value is given as “approximately 17 hours”.
